Laboratory results from US20240358681A1, “METHODS OF USE OF PPAR AGONIST COMPOUNDS AND PHARMACEUTICAL COMPOSITIONS THEREOF” (Mitobridge, Inc., priority 2021, published 2024).
Several values for one entry are separate records, joined by “and”; a condition that tells them apart may be missing. Equal values may be shown once. Entries after “also recorded” stand apart in the source; their conditions may differ.

Tests used:
[1] = test system: fibroblasts from patients harboring mitochondrial mutations (Leigh Syndrome/LHON, MELAS, KSS) and MERRF cybrid cell line; assay: Gene expression analysis in cells harboring mitochondrial mutations; type: cell-based, human; details: for ACADVL expression: FIG. 3C
Excerpt: Leigh syndrome/Leber's hereditary optic neuropathy (LHON) cells were isolated from a patient diagnosed with both Leigh syndrome and LHON. This subject had two point mutations; one in the mtDNA-encoded ND4 gene (mutation 11778G>A) and one in the mtDNA encoded ND6 gene (mutation 14484T>C) in the NADH dehydrogenase complex. m.3243A>G MELAS (Mitochondrial encephalomyopathy, lactic acidosis, and stroke-like episodes) cells were isolated from a patient harboring the m.3243A>G mutation in the mtDNA-encoded tRNA-leucine gene. Kearns Sayre Syndrome (KSS) fibroblast cells were isolated from a patient harboring the 5 kilobase (Kb) common deletion and were obtained from the Coriell Institue along with a control fibroblast cell line. MERRF m.8344A>G osteosarcoma transmitochondrial cybrids were acquired from the Moraes lab (Masucci, J. P., M. P. Schon Ea Fau-King, and M. P. King, Point mutations in the mitochondrial tRNA(Lys) gene: implications for pathogenesis and mechanism. (0300-8177)).
MELAS m.3243A>G fibroblasts were grown in Eagle's minimum essential media (EMEM) supplemented with 10% heat inactivated FBS, 1 mM sodium pyruvate, 1× non-essential amino acids, 2 mM 1-glutamine, and 100 μg/ml of uridine. KSS fibroblasts were grown in EMEM supplemented with 15% heat inactivated FBS, 1× non-essential amino acids, and 100 μg/ml of uridine. Leigh/LHON syndrome fibroblast cell lines were grown in Dulbecco's modified eagle medium (DMEM) supplemented with 1 mM sodium pyruvate, 10% HI FBS, and 100 μg/ml of uridine. MERRF tRNA-LYS 8344 cybrid cells were grown in DMEM supplemented with 10% heat inactivated FBS, 1 mM sodium pyruvate and 100 μg/ml of uridine.
All cell lines with the exception of LHON/Leigh Syndrome fibroblasts were plated at a density of 50 k/well in 6 well plates. Compound (I) or 0.1% DMSO was added 8 hours later in complete media. Treatment media or vehicle media were refreshed 24 hours later for a total treatment time of 48 hours. LHON/Leigh Syndrome fibroblasts were plated and treated in the same manner but for a total treatment time of 24 hours.
mTotal RNA was isolated using NucleoSpin® kits (Macherey-Nagel) as per manufacturer's protocol. One microgram of total RNA was used to generate cDNA using the High-Capacity cDNA Reverse Transcription Kit (Applied Biosystems).
MELAS m.3243A>G fibroblasts, KSS Fibroblast and MERRF tRNA-Lys 8344 cybrid gene expression was performed using 5 ng cDNA and 300 nM of primers were mixed with water and iQ SYBR Green master mix, loaded in 384-well qPCR plates, and subsequently analyzed using a BioRad CFX384 Real-Time PCR Detection System. Fold change was calculated as ΔCt on a per sample basis was calculated as Ct (Gene of interest)−Ct (Average of reference genes). The ΔΔCt was then calculated as ΔCt (experimental sample)−Average ΔCt (control group). Fold change was calculated as 2^−ΔΔCT. LHON/Leigh Syndrome fibroblast cDNA was mixed with dH2O and SYBR Green master mix and 1 μM of primers were dispensed into the sample source plates and primer source plates in 384-well plates, respectively. Reactions were loaded into SmartChip (WaferGen Bio-systems) with Multisample Nanodispenser and the chip was analyzed in the SmartChip Cycler.
Raw expression data was exported from software and graphed after processing with reference genes and normalized against control using QBase software. To obtain normalized values, the calibrated normalized relative quantities (CNRQ) values of each sample were divided by the average CNRQ for all vehicle treated samples in order to make expression relative to the control group.

[2] = 26-week rat GLP toxicity study; type: in vivo

## Cc1cnc(-c2ccc(C(F)(F)F)cc2)n1Cc1ccccc1OCCC[C@@H](C)CC(=O)O [Compound (I), (R)-3-Methyl-6-(2-((5-methyl-2-(4-(trifluoromethyl)phenyl)-1H-imidazol-1-yl)methyl)-phenoxy)hexanoic acid]
[1]; 24 or 48 hour treatment, across all four cell lines tested, FIG. 3B
  PDK4 transcript increase: 10 to 50 fold and 10 to 100 fold
[1]; 24 or 48 hours treatment, FIG. 3A
  ANGPTL4 induction (marker of target engagement): large induction; also recorded: greatly induced
[1]; MELAS and MERRF cells, n=2, no statistical comparison
  ACADVL expression: showed induction
[1]; across all cell lines tested, FIG. 3D
  CPT1A transcript induction: approximately 2 fold
[1]; across all four cell lines tested, FIG. 3E
  SLC25A20 expression: induced
[1]; across four cell lines with mitochondrial mutations, FIG. 3C-3E
  Genes involved in the import, packaging and catabolism of fatty acids into the mitochondria for OXPHOS: upregulated
[1]; two of the lines tested
  ACADVL expression: significantly upregulated
[2]
  no observed adverse effect level (NOAEL): highest tested dose
